Laboratory results reported in US9994566B2, “Compound of 5-hydroxyl-1,7-naphthyridine substituted by aryl or heteroaryl, preparation method thereof and pharmaceutical use thereof” (SHENYANG SUNSHINE PHARMACEUTICAL CO. LTD., priority 2015, dated 2018).
“And” between values parts separate entries of the source, which are not always exact repeats. Equal entries are not always repeated.

Legend:
[1] = test system: hepatoma cells Hep3B; experiment: Promotion of erythropoietin (EPO) expression in hepatoma cells Hep3B in vitro (ELISA); assay type: cell-based, Human; conditions: Hep3B supernatant, 24 hours, test doses 100 μmol/L and 10 μmol/L (dose of the tabulated value not given)
Source text: Biological Example 1: Development and Screening of In Vitro Detection Methods: Promotion of Erythropoietin Expression in Hepatoma Cells Hep3B In Vitro by HIF-PHD2 Inhibitor Compounds
The complete medium for culture of Experimental hepatoma cells Hep3B (China Center for Type Culture Collection, CCTCC) was MEM (Cat# GNM 41500, GIBCO, provided by Hangzhou Genom Biopharmaceutical Technology Co., Ltd) supplemented with 10% serum FBS (Cat#10099-141, GIBCO) and 1% P/S (Cat#GNM15140, provided by Hangzhou Genom Biopharmaceutical Technology Co., Ltd). Cells were cultured in a 37° C., 5% CO2 incubator. Experimental reagents included dimethyl sulfoxide (for molecular biology, >=99.9%, Catalog # D8418) purchased from Sigma. The ELISA kit was purchased from Quantikine IVD ELISA, Human Erythropoietin (R&D, DEP00). The test control AKB-6548 was prepared by the inventors or obtained by commercial purchase. The test substance was stored at −20° C. in the dark.
The test substance and the positive control substance were fully dissolved in sterile water or dimethylsulfoxide under dark conditions and prepared into a stock solution at a concentration of 10^−1 mol/L or 10^−2 mol/L. Each of the stock solutions was stored at −20° C. MEM medium containing 0.5% FBS was used as a diluent to dilute the stock solution of the test substance, to prepare a diluted test substance at a concentration of 100 μmol/L and 10 μmol/L. To a 96-well culture plate was added 200 μl/well (1.5 or 2.0×10^4 cells/well) of hepatoma cells Hep3B complete medium suspension and incubated overnight at 37° C. in a 5% CO2 incubator. The solution in the 96-well culture plate was removed and the cells were washed once with the MEM medium containing 0.5% FBS. 200 μl/well of the test substance was added in the dark, at a dose of 100 μmol/L and 10 μmol/L, and each dose set 2 wells, a test well and a spare well. A cell control well was prepared by replacing the test solution with the diluent (without test substance and solvent). A solvent control well was prepared by replacing the test solution with the diluent containing the corresponding concentration of solvent (dimethylsulfoxide) (without test substance). They were cultured in a 5% CO2 incubator at 37° C. for 24 hours. The supernatant was absorbed as a sample and cryopreserved at −20° C. for use. 100 μl/well of stop solution was added. OD value was detected by microplate reader A450 nm-A600 nm. The expression level of EPO (mIU/mL) promoted by the test substance was obtained according to the standard curve.

[2] = test system: male Balb/c mice; experiment: Effect on increasing erythrocyte of normal mice: reticulocyte (RETIC) count; assay type: in vivo; conditions: four hours after the last administration; for RETIC, individual mice (Mice No. 1-8): one value per mouse; for RETIC, Average: orbital blood
Description: Biological Example 3: Effect of the Compounds of the Present Invention on Increasing Erythrocyte of Normal Mice
80 male Balb/c mice were divided into 11 groups, with 8 animals for each drug group, 10 animals for blank control group. Drug group: AKB-6548, 100 mg/kg, oral administration, once a day×3; FG-4592, 25 mg/kg, oral administration, once a day×3; EPO, 100 IU/kg, Day 1 and Day 3, subcutaneous injection, as positive control groups. Each of the compounds of the present invention was orally administrated at 25 mg/kg, once a day×3. Four hours after the last administration, orbital blood of all animals were collected and treated with EDTA-K2 anticoagulant, and reticulocytes (RETIC) were counted with a blood cell automated analyzer.

[3] = molecular target: HIF Prolyl hydroxylases 2 (PHD2) (Homo sapiens, UniProt Q9GZT9); experiment: PHD2 inhibition, fluorescence polarization (FP) detection of HIF-1α / VBC complex interaction; assay type: biochemical; conditions: PHD2 0.5 μg/μl, FAM-HIF (556-575) 1 μM, 30 minutes room temperature
Description: The interaction between hypoxia-inducible factor HIF-1α and VBC complex (von Hippel-Lindau protein-Elongin B-Elongin C, VBC) was detected by Fluorescence polarization (FP) method, to measure the enzyme inhibitory activity of the HIF Prolyl hydroxylases 2 (PHD2) inhibitor compounds.
Subsequently, the desired concentration of the test compound or the positive compound was added (the compound was replaced by the buffer in the negative control and the positive control). Finally, PHD2 was added at a final concentration of 0.5 μg/μl (PHD2 was replaced by the buffer in the negative control). They were mixed well and allowed to stand at room temperature for 30 minutes in the dark followed by 95° C. water bath for 1 minute, and then the reaction was terminated. After the temperature drops to room temperature, the sample was prepared well for use. EBC buffer (50 mM Tris.HCl, 120 mM NaCl, 0.5% NP-40) was added to the corresponding wells of a black 96-well test plate. A GST-VBC complex was added to the corresponding test wells at a final concentration of 300 nM (using the wells containing only EBC buffer as blank wells). Subsequently, the corresponding PHD2 prolyl hydroxylation reaction sample was added in the dark as a substrate with a final concentration of 100 nM. After mixing well, the lateral and longitudinal fluorescence intensity values were measured using a full-wavelength multifunctional microplate reader (TECAN infinite M1000) at an excitation wavelength of […] and an emission wavelength of 518 nm.
The fluorescence polarization (mP) was calculated: mP=1000×(lateral value−G factor×longitudinal value)/(lateral value+G factor×longitudinal value) wherein, lateral value=lateral fluorescence intensity value of test well−lateral fluorescence intensity value of blank well, longitudinal value=longitudinal fluorescence intensity value of test well−longitudinal fluorescence intensity value of blank well, […]
The IC50 was calculated using the non-linear regression data analysis method of Graphpad Prism 4.0 software ([…]).

[4] = 100 IU/kg, subcutaneous injection, Day 1 and Day 3

Sequence of HIF Prolyl hydroxylases 2 (PHD2) (Q9GZT9 whole entry, species assumed): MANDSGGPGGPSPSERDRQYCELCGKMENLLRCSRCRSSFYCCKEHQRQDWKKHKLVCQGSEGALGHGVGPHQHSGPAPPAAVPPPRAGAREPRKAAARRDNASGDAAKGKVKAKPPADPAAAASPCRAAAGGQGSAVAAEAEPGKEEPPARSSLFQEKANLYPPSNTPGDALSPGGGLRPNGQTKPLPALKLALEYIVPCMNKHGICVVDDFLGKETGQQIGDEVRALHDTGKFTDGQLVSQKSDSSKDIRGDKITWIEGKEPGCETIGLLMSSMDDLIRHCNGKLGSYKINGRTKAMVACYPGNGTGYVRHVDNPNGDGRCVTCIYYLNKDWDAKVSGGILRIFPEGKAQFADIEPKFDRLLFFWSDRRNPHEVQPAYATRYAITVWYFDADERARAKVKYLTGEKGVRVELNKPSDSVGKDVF

Row | IC50 [3] | Molecule | EPO level of the test substance [1] | also measured
1 |  | N#Cc1ccc(-c2cnc(C(=O)NCC(=O)O)c(O)c2)cc1 [AKB-6548, reference compound] | 0.13 mIU/mL | RETIC, individual mice (Mice No. 1-8) ([2]; 100 mg/kg, oral, once a day × 3, listed as AKB-6548-A): 5.3 (2×) and 6.1 and 4 (2×) and 4.2 (2×) and 4.9; RETIC, Average ([2]; 100 mg/kg, oral, once a day × 3): 4.75
2 | 18 µM | O=C(O)CNC(=O)c1ncc2nc(-c3ccccc3)ccc2c1O [Compound 1] | 0.71 mIU/mL | 
3 | 11 µM | COc1ccc(-c2ccc3c(O)c(C(=O)NCC(=O)O)ncc3n2)cc1 [Compound 2, 2-{5-hydroxy-[2-(4-methoxy)-phenyl]-[1,7]-naphthyridine-6-formamido} acetic acid] | 0.64 mIU/mL | 
4 | 85 µM | Cc1nc(C(=O)NCC(=O)O)c(O)c2ccc(-c3ccc(Cl)cc3)nc12 [Compound 3, 2-{5-hydroxy-[2-(4-chloro)-phenyl]-8-methyl-[1,7]-naphthyridine-6-formamido} acetic acid] | 0.52 mIU/mL | 
5 | 6.9 µM | COc1cccc(-c2ccc3c(O)c(C(=O)NCC(=O)O)nc(C)c3n2)c1 [Compound 4, 2-{5-hydroxy-[2-(3-methoxy)-phenyl]-8-methyl-[1,7]-napthyridine-6-formamido} acetic acid] | 1.512 mIU/mL | 
6 | 1.7 µM | Cc1nc(C(=O)NCC(=O)O)c(O)c2ccc(-c3cccnc3)nc12 [Compound 5, 2-{5-hydroxy-8-methyl-[2-(3-pyridyl)]-[1,7]-naphthyridine-6-formamido} acetic acid] | 1.89 mIU/mL | 
7 | 0.41 µM | O=C(O)CNC(=O)c1ncc2nc(-c3cccc(Cl)c3)ccc2c1O [Compound 6, 2-{5-hydroxy-[2-(3-chloro)-phenyl]-[1,7]-naphthyridine-6-formamido} acetic acid] | 2.268 mIU/mL | RETIC, individual mice (Mice No. 1-8) ([2]; 25 mg/kg, oral, once a day × 3): 5.2 (2×) and 4.8 and 6.3 and 4.7 and 6.4 and 3.9 and 5.4; RETIC, Average ([2]; 25 mg/kg, oral, once a day × 3): 5.24
8 | 43 µM | O=C(O)CNC(=O)c1ncc2nc(-c3ccc(Cl)cc3)ccc2c1O [Compound 8] | 0.68 mIU/mL | 
9 | 63 µM | COc1ccc(-c2ccc3c(O)c(C(=O)NCC(=O)O)nc(C)c3n2)cc1 [Compound 10, 2-{5-hydroxy-8-methyl-[2-(4-methoxy)-phenyl]-[1,7]-naphthyridine-6-formamido} acetic acid] | 0.64 mIU/mL | 
10 | 39 µM | Cc1nc(C(=O)NCC(=O)O)c(O)c2ccc(-c3ccc(C(C)(C)C)cc3)nc12 [Compound 11, 2-{5-hydroxy-8-methyl-[2-(4-tert-butyl)-phenyl]-[1,7]-naphthyridine-6-formamido} acetic acid] | 4.158 mIU/mL | 
11 | 4.1 µM | Cc1nc(C(=O)NCC(=O)O)c(O)c2ccc(-c3cccc(Br)c3)nc12 [Compound 12, 2-{5-hydroxy-[2-(3-bromo)-phenyl]-8-methyl-[1,7]-naphthyridine-6-formamido} acetic acid] | 4.536 mIU/mL | 
12 | 0.41 µM | O=C(O)CNC(=O)c1ncc2nc(-c3cccc(Br)c3)ccc2c1O [Compound 13, 2-{5-hydroxy-2-(3-bromophenyl)-[1,7]-naphthyridine-6-formamido} acetic acid] | 0.832 mIU/mL | 
13 | 10 µM | O=C(O)CNC(=O)c1ncc2nc(-c3cccc4ccccc34)ccc2c1O [Compound 14, [(5-hydroxy-2-(naphthalene-1-yl)-[1,7]naphthyridine-6-carbonyl)-amino]-acetic acid] | 5.435 mIU/mL | RETIC, individual mice (Mice No. 1-8) ([2]; 25 mg/kg, oral, once a day × 3): 4 (3×) and 3.8 and 4.1 and 5.8 and 3.4 and 4.3; RETIC, Average ([2]; 25 mg/kg, oral, once a day × 3): 4.18
14 | 48 µM | CC(C)(C)c1ccc(-c2ccc3c(O)c(C(=O)NCC(=O)O)ncc3n2)cc1 [Compound 16] | 7.046 mIU/mL | 
15 | 20 µM | O=C(O)CNC(=O)c1ncc2nc(-c3ccc(Br)cc3)ccc2c1O [Compound 17, 2-{5-hydroxy-[2-(4-bromo)-phenyl)-[1,7]-naphthyridine-6-formamido} acetic acid] | 7.757 mIU/mL | 
16 | 5.7 µM | O=C(O)CNC(=O)c1ncc2nc(-c3cccs3)ccc2c1O [Compound 18] | 8.888 mIU/mL | 
17 | 7.5 µM | O=C(O)CNC(=O)c1ncc2nc(-c3ccc4ccccc4c3)ccc2c1O [Compound 19, [(5-hydroxy-2-(naphthalen-2-yl)-[1,7]naphthyridine-6-carbonyl)-amino]-acetic acid] | 9.786 mIU/mL | 
18 | 0.82 µM | O=C(O)CNC(=O)c1ncc2nc(-c3cccc(F)c3)ccc2c1O [Compound 20, 2-{5-hydroxy-[2-(3-fluoro)-phenyl]-[1,7]-naphthyridine-6-formamido} acetic acid] | 10.685 mIU/mL | 
19 | 14 µM | Cc1nc(C(=O)NCC(=O)O)c(O)c2ccc(-c3cccc([N+](=O)[O-])c3)nc12 [Compound 21, 2-{5-hydroxy-[2-(3-nitro)-phenyl]-8-methyl-[1,7]-naphthyridine-6-formamido} acetic acid] | 0.325 mIU/mL | 
20 | 9.3 µM | Cc1nc(C(=O)NCC(=O)O)c(O)c2ccc(-c3ccc(C#N)cc3)nc12 [Compound 22, 2-{5-hydroxy-[2-(4-cyano)-phenyl]-8-methyl-[1,7]-naphthyridine-6-formamido} acetic acid] | 0.53 mIU/mL | 
21 |  | Cc1nc(C(=O)NCC(=O)O)c(O)c2ccc(Oc3ccccc3)cc12 [FG-4592, reference compound] | 0.378 mIU/mL | RETIC, individual mice (Mice No. 1-8) ([2]; 25 mg/kg, oral, once a day × 3, listed as FG-4592-A): 3.6 and 3.8 (2×) and 4 (2×) and 3.5 and 4.4 and 3.4; RETIC, Average ([2]; 25 mg/kg, oral, once a day × 3): 3.73
22 |  | EPO: erythropoietin, glycoprotein hormone; positive control given by subcutaneous injection |  | RETIC, individual mice (Mice No. 1-8) [2, 4]: 5 and 5.9 and 2.5 and 2.2 (2×) and 2.6 and 4.3 and 5.1; RETIC, Average [2, 4]: 3.73
